Measured values reported in patent publication US10981854B2 (SYMRISE AG, priority 2016, dated 2021).

Tests used:
[1] = system: Aspergillus brasiliensis; conditions: when used in cosmetics; Daily Chemical Industry 2015, 45:269; cited from earlier work
[2] = system: Pseudomonas aeruginosa; conditions: when used in cosmetics; Daily Chemical Industry 2015, 45:269; cited from earlier work
[3] = Solubility test c): 4-HAP + 3 wt. % 1,2-pentanediol (Hydrolite 5) + 5 wt. % glycerin in cold water; assay type: physicochemical
[4] = Solubility test d): 4-HAP + 3 wt. % 1,2-pentanediol (Hydrolite 5) + 5 wt. % glycerin in warm water; assay type: physicochemical; conditions: for dissolution result: heating up to 50° C. and cooling down while stirring; for crystals on storage: stored at 5° C. and room temperature, after 24 h
[5] = Solubility test e): 4-HAP + 5 wt. % 1,2-pentanediol (Hydrolite 5) in cold water; assay type: physicochemical; conditions: for dissolution result: after ca. 50 min
[6] = General properties: behaviour when put into water; assay type: physicochemical; conditions: solid put into water in a beaker
[7] = 0.5 wt. % 4-HAP + 3 wt. % 1,2-pentanediol + 5 wt. % glycerin
[8] = 1 wt. % 4-HAP + 3 wt. % 1,2-pentanediol + 5 wt. % glycerin
[9] = 0.5 wt. % 4-HAP + 5 wt. % 1,2-pentanediol
[10] = 1 wt. % 4-HAP + 5 wt. % 1,2-pentanediol

In the case of `CC(=O)c1ccc(O)cc1` [4-hydroxyacetophenone], the “ability to kill Aspergillus brasiliensis” value [1] is given as “great ability to kill” and the “ability to restrain Pseudomonas aeruginosa” value [2] is given as “certain ability to restrain”.

In the case of `CC(=O)c1ccc(O)cc1` [Example 3, 4-hydroxyacetophenone], the “storage time after which crystallization/precipitation” value [3, 7] is reported as 48 h, the “time until solved completely” value [3, 7] is reported as “ca. 50 min” and the “time until solved completely” value [3, 8] is reported as “ca. 50 min”. For the same compound, the crystallization/precipitation on storage ([3]; 1 wt. % 4-HAP + 3 wt. % 1,2-pentanediol + 5 wt. % glycerin, after 24 h of storage) was “no crystallization/precipitation”, the dissolution result [4, 7] was “solved completely” and the crystals on storage [4, 7] was “no crystals”. The dissolution result [4, 8] was “solved completely”, the crystals on storage [4, 8] was “no crystals” and the “time until solved completely” value [5, 9] was “ca. 50 min”. For the same compound, the crystallization/precipitation on storage ([5]; 0.5 wt. % 4-HAP + 5 wt. % 1,2-pentanediol, after 24 h of storage) was “no crystallization/precipitation”, the “time until solved completely” value [5, 10] was “ca. 50 min” and the “storage time after which crystallization” value ([5]; 1 wt. % 4-HAP + 5 wt. % 1,2-pentanediol, stored at 5° C.) was 24 h. The “behaviour when put into water” value [6] was “distributes on the surface and slowly falls to the ground of the beaker”.

For `CC(=O)c1ccc(O)cc1` [Example 4, 4-hydroxyacetophenone], the “storage time after which crystallization/precipitation” value [3, 7] was 48 h, the “time until solved completely” value [3, 7] was “ca. 50 min” and the dissolution result ([3]; 1 wt. % 4-HAP + 3 wt. % 1,2-pentanediol + 5 wt. % glycerin, after stirring for 60 min) was “a few lumps of solid left undissolved”. For the same compound, the dissolution result [4, 7] was “solved completely”, the crystals on storage [4, 7] was “no crystals” and the dissolution result [4, 8] was “solved completely”. The crystals on storage [4, 8] was “no crystals”, the dissolution result [5, 9] was “a few little lumps of solid left undissolved” and the dissolution result [5, 10] was “lumps of solid left undissolved”. For the same compound, the “behaviour when put into water” value [6] was “agglomerates and sinks to the ground”.
